Tests used:
T. maritima TsaD = T. maritima TsaD (Thermotoga maritima, UniProt Q9WXZ2); experiment: STD NMR; assay type: binding; conditions: 20 µM protein, 1 mM amino acid, 10 mM potassium phosphate pH 6.8, 100 mM NaCl, 99% D2O, 37°C
E. coli TsaD = E. coli TsaD (Escherichia coli, UniProt P05852); experiment: STD NMR; assay type: binding; conditions: 20 µM protein, 1 mM amino acid, 10 mM potassium phosphate pH 6.8, 100 mM NaCl, 99% D2O, 37°C
Sequence of E. coli TsaD (P05852 whole entry): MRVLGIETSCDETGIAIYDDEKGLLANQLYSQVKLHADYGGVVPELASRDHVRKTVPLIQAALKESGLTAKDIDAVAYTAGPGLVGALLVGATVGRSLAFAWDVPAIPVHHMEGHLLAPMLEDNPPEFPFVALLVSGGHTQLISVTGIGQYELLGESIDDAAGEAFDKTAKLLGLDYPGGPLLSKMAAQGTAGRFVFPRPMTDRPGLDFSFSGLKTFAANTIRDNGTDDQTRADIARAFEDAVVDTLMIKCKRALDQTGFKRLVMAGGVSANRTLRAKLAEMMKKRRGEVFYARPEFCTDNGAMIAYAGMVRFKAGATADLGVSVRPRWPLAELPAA

Sequence of T. maritima TsaD (Q9WXZ2 whole entry): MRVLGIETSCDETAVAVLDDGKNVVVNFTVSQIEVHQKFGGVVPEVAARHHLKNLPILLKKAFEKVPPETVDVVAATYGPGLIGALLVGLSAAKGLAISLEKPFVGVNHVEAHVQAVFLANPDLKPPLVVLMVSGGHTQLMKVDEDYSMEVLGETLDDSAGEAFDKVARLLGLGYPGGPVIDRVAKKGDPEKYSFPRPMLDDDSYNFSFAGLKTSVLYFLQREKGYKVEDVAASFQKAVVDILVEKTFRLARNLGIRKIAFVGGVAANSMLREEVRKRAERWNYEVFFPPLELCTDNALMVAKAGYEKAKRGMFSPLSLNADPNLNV

**Q.** For `CCC(O)C(N)C(=O)O` (racemic) [hnV, D,L-3-hydroxynorvaline], which “STD NMR” value (T. maritima TsaD; racemate tested) is on record?
**A.** Its value is “interaction with hydroxynorvaline, distinct signals due to interactions with the Hα and Hβ protons”.

**Q.** How did the “STD NMR” value (T. maritima TsaD) turn out when `C[C@@H](O)[C@H](N)C(=O)O` [Thr, L-threonine] was run?
**A.** The value was “clear STD NMR signal for its interaction with the Hβ proton of threonine”.

**Q.** And the “STD NMR” value (E. coli TsaD)?
**A.** Its value is “E. coli TsaD shows a similar pattern of interaction with threonine”.

— article PMC7430679 (RNA, 2020)
